In patent US20250262209A1, “TREATMENT OF GASTROINTESTINAL DISEASES” (Aclipse Two, Inc., priority 2022, published 2025):

Columns and labels:
[1] = test system: monocytes from PBMC differentiated into M2 macrophage; test: M2 macrophage differentiation assay; format: cell-based, human
Source text: The purpose of this study was to evaluate the effects of lobeglitazone and other thiazolidinediones on M2 macrophage differentiation. The test articles and vehicles used in this study were lobeglitazone sulfate, pioglitazone HCl, and rosiglitazone.
M2 macrophage differentiation assay timeline was as follows in Table 10.
• (1) Isolate monocytes from PBMC using StemCell® monocyte isolation kit • (2) Count cell and adjust the cell density to 0.5×10^6 cells/ml with fresh complete differentiation medium. Add 5 μL M-CSF stock ([…]) to each 5 ml cell mixture. • (3) Seed isolated monocyte 100 μL per well on 96-well plate. • (4) Add test articles as the plate map using D300e (final concentration in μM). • (5) Differentiate the monocyte to macrophage in the presence of M-CSF to […] for 4 days. • (6) On day 4, add additional medium containing M-CSF. • (7) Add test compounds using D300e (final volume=[…]). • (8) On day 6, add IL-4 at 5× final concentration (IL-4 stock 0.1 mg/ml: dilute 10 μl stock into 10 ml medium for 100 ng/ml. Add 50 μl 100 ng/ml IL-4 to each well containing 200 μL medium to reach 20 ng/ml). • (9) On day 8, spin down the plates at 300×g for 5 min and collect the supernatant for cytokine quantification using MSD. • (10) M2 associated macrophage cytokines of interest are listed below in Table 12.
• (11) Collect cells for flow analysis of viability/CD11c/CD163/CD206.
Flow cytometry and surface marker CD163, CD11c, and CD206 were applied to characterize M2 repolarization. No stain and all stain with surface marker antibody to confirm the optimization of gating strategy.

[2] = test system: TNF-α, IL-10, CCL2, and IL-1β gene expression in colon; test: QT-PCR gene expression in colon of the DSS-induced IBD model; format: in vivo, mice
Description: Animals were euthanized by CO2 at the end of study. Colon length and colon weight (cecum is not included) were recorded, and macroscopic changes were scored based on Table 2. The colon was cleaned using saline, and all feces were removed before weight measurement. The middle part of colon was collected in cassette and fixed in 10% neutral buffered formalin (NBF) for H&E and PAS staining. For left colon, mucosal from colon surface was removed and then snap frozen in liquid nitrogen and store at −80° C. for QT-PCR analysis of TNF-α, IL-10, CCL2, and IL-1β. QT-PCR primers were purchased from Sangon Biotech Co., Ltd.
Treatment of Tissue before RNA Extraction are as follows. • (a) Remove mucosal from colon surface. Cut colon tissue into small pieces on ice. • (b) Weight out the tissue no more than 30 mg and transfer the tissue into a lysing matrix D tube. Totally 700 µL Trizol was added in the tissue and lysing matrix D immediately. • (c) Put the lysing matrix D tubes which contain tissue, Lysing matrix, and 700 μL Trizol into the FastPrep™-24 Sample Preparation System. • (d) Set at speed 6 and grind for 2 min • (e) 140 μL chloroform was added into the tubes, shake the tubes vigorously by vortex for 15 seconds. Incubate at room temperature for 2 min. • (f) 12000 rpm centrifuge for 10 min at 4° C., • (g) Pipet the supernatant to 96 well 2.2 mL deep well plate
RNA Sample Preparation procedure is as follows. • (a) 600 μL Binding Buffer was added into column 1 and 7 • (b) 600 μL DNase Stop Buffer was added into column 2 I 8 • (c) 600 μL Wash Buffer was added into column 3, 4 and 9, 10 • (d) 100 μL Elution Buffer was added into column 5Id 11 • (e) 190 μL DEPC water and 10 μL MagaBio® Reagent was added into column 6 and 12 • (f) Transfer 300 μL of the colorless, upper phase containing the RNA to column 1 and 7 • (g) Put the test plate in nucleic acid purifier • (h) Set the instrument as below in Table 3.
The elution was transferred into a clean nuclease-free centrifuge tube and the RNA sample was store at −80° C.
To use the Takara Prime Script™ Reverse Transcription System, Mix and briefly centrifuge each component before use. Combine the following component volume as in Table 4.
• (a) Store on ice until reverse transcription mix is added. Centrifuge 10 seconds in a micro-centrifuge. Heat in a 42° C. heat block for 2 minutes, 4° C. immediately chill in ice water for at least 5 minutes. • (b) Prepare the reverse transcription reaction mix, 10 μL for each cDNA reaction. Combine on ice, in the order listed. Component volume of step b) (Table 5).
• (c) Combine 20 μL of reverse transcription mix, Centrifuge 10 seconds in a microcentrifuge. • (d) Anneal in a heat block at 37° C. for 15 min, 85° C. for 5 sec, 4° C. save on S100™ Thermal Cycler. • (e) Aliquot the cDNA sample and store at −20° C.
• (a) Make qPCR reaction mixture in one tube based on assay number and replicas. • (b) Prepare primers and master mix mixture according to manufacturer's instructions. And aliquot 9 μL of mixture into each well of the 384 qPCR plate. • (c) Transfer 1 μL of cDNA into each well of a 384 qPCR plate which already contain 9 μL of mixture. Briefly centrifuge the plate. • (d) Seal the plate • (e) Mix thoroughly, spin briefly • (f) Run the PCR Reaction • (g) Place the reaction plate in the instrument. • (h) Set the Applied Biosystems ViiA™ 7 cycling conditions as in Table 6.
Data were expressed as mean±SD. The 2-ΔΔCT method was used to analyze the mRNA expression level. The results were normalized for RNA input using glyceraldehydes-3-phosphate dehydrogenase (GAPDH or other internal controls). Statistical analysis was performed using, one-way ANOVA followed if significant by post-hoc Dunnett test. […] The difference was considered significant when p<0.05

[3] = 0.36 mg/kg PO QD 10 days, vs model
[4] = 1.20 mg/kg PO QD 10 days, vs model
[5] = 3.61 mg/kg PO QD 10 days, vs model

## COc1ccc(Oc2cc(N(C)CCOc3ccc(CC4SC(=O)NC4=O)cc3)ncn2)cc1 (centres unmarked) [lobeglitazone, 5-(4-(2-((6-(4-Methoxyphenoxy)pyrimidin-4-yl)(methyl)amino)ethoxy)benzyl)thiazolidine-2,4-dione]
[1]; CD163, CD11c, CD206, donor 1 and 2
  concentration at which M2 repolarization was promoted (M2 macrophage surface markers, flow cytometry): ~0.025 UM
[1]; cytokine analysis (MSD), donor 1
  Eotaxin-2 expression: remarkable promotion
[1]; cytokine analysis (MSD), donor 3
  MDC expression: remarkable promotion
[2]; [3]
  CCL2 gene expression levels in colon: led to decreases
  IL-1B gene expression levels in colon: significantly decreased
  TNF-α gene expression levels in colon: significantly decreased
[2]; [4]
  CCL2 gene expression levels in colon: led to decreases
  IL-1B gene expression levels in colon: significantly decreased
  TNF-α gene expression levels in colon: significantly decreased
[2]; [5]
  CCL2 gene expression levels in colon: significantly decreased
  IL-1β gene expression levels in colon: did not change
  TNF-α gene expression levels in colon: didn't show obvious changes
[2]; lobeglitazone groups (0.36, 1.20, 3.61 mg/kg PO QD 10 days)
  IL-10 gene expression levels in colon: did not change significantly
[2]; mouse DSS model, 0.36 and 1.20, and 3.61 mg/kg
  GI inflammation, as evidenced by the gene expression data: significantly decreased
